# Measurements reported in patent US6346626B1, “Chromanone and thiochromanone compounds” (Novartis AG, priority 1998, dated 2002).
# How the values were obtained:
# steroid sulfatase [1] = molecular target: T1, steroid sulfatase (Homo sapiens, UniProt P08842); assay: Steroid sulfatase inhibition in vitro (purified enzyme, 4-methylumbelliferyl sulfate cleavage, fluorescence); conditions: purified human placental steroid sulfatase, 0.5 mM 4-methylumbelliferyl sulfate, 37°, 1 hour; reference determined in parallel
# T1 sequence (P08842 22-583): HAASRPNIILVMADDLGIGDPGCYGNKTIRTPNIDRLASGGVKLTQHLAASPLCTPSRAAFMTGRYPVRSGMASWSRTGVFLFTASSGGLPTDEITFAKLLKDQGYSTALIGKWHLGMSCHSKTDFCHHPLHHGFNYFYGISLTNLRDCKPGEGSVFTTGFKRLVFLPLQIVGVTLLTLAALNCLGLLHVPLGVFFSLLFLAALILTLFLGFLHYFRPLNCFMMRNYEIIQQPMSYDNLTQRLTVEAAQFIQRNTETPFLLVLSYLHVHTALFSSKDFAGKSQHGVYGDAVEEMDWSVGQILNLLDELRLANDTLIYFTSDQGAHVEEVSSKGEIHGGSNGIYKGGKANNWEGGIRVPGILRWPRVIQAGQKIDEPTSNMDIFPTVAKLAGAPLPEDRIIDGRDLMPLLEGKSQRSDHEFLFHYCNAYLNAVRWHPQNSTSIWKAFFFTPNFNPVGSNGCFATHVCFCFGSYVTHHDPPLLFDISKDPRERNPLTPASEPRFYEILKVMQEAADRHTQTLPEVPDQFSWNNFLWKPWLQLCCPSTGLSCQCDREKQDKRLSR
# Experimental: Steroid Sulfatase Inhibition in vitro
# a) Purification of Human Steroid Sulfatase
# Human placenta is obtained fresh after delivery and stripped of membranes and connective tissues. For storage the material is frozen at −70°. After thawing, all further steps are carried out at 4°, while pH values are adjusted at 20°. 400 g of tissue are homogenized in 1.2 l of buffer A (50 mM Tris-HCl, pH 7.4; 0.25M sucrose). The homogenate is centrifuged at 10,000 g for 45 minutes. The supernatant is set aside and the pellet re-homogenized in 500 ml of buffer A. After centrifugation the two supernatants are combined and subjected to ultracentrifugation (100,000 g, 1 hour). The pellet is resuspended in buffer A and the centrifugation repeated. The pellet is suspended in 50 ml of 50 mM Tris-HCl, pH 7.4 and stored at −20° until further work-up.
# After thawing, microsomes are collected by ultracentrifugation as described above and suspended in 50 ml of buffer B (10 mM Tris-HCl, pH 7.0; 1 mM EDTA; 2 mM 2-mercaptoethanol; 1% Triton X-100 v/v; 0.1% aprotinin v/v). After 1 hour on ice with gentle agitation the suspension is centrifuged (100,000 g, 1 hour). […]
# Purified human steroid sulfatase also readily cleaves aryl sulfates such as 4-methylumbelliferyl sulfate. […]
# Plates are incubated at 37° for 1 hour. […] Fluorescence intensity is measured (Titertek Fluoroskan II) with λex=355 nm and λem=460 nm. […]
# [2] = molecular target: T2, steroid sulfatase in HaCaT keratinocytes (Homo sapiens, UniProt P08842); assay: Steroid sulfatase inhibition in HaCaT cells incubated with DHEAS; type: cell-based; conditions: intact HaCaT keratinocytes, 0.3 μM DHEAS, 96 hours
# T2 construct: HaCaT keratinocytes are cultivated in Dulbecco's modification of Eagle's medium (DMEM); endogenous in cells; host or cells: HaCaT keratinocytes
# T2 sequence (P08842 22-583): T1 sequence (P08842 22-583)
# Experimental: Steroid Sulfatase Inhibition in HaCaT Cells Incubated with DHEAS
# HaCaT keratinocytes are cultivated in Dulbecco's modification of Eagle's medium (DMEM) supplemented with 10% v/v fetal calf serum (FCS). They are grown to confluency and then harvested by trypsinization. Approximately 2×10^6 cells are dispensed into 9.6 cm^2 dishes and incubated in medium containing FCS until confluency is reached. Then the medium is changed to serum-free DMEM (1.5 ml per well); 0.3 μM DHEAS is included as substrate with 1.5 μCi/well [^3H]-DHEAS (21 Ci/mmol) as tracer. Incubation is continued for 96 hours. […] In parallel, DHEAS is also incubated with medium without cells as a control for non-enzymatic hydrolysis. After incubation, the supernatant is removed and 1 ml is extracted with 4 ml of toluene. 3 ml of the organic layer are collected and the solvent evaporated in vacuo. The residue is taken up in acetonitrile. 10 μg DHEA is included as carrier. The extract is analysed by high performance liquid chromatography (HPLC) using a RP C-8 column and isocratic elution with 10 mM ammonium sulfate pH 6/acetonitrile (60/40), at a flow rate of 1 ml/min. The amount of DHEA cleaved during incubation is calculated from the area of the corresponding radioactive peak determined by continuous monitoring with a radiodetector equipped with a flow-cell.
# steroid sulfatase [3] = molecular target: T1, steroid sulfatase; assay: Steroid sulfatase inhibition in cell extracts (HaCaT keratinocytes or 1BR3GN fibroblasts, [3H]-DHEAS cleavage); type: biochemical; design: the supernatant which contains the solubilized enzyme is removed and stored at 4°; endogenous in cells; host or cells: HaCaT keratinocytes or 1BR3GN fibroblasts (microsomal extract); conditions: solubilized enzyme from HaCaT or 1BR3GN cells, 50 μM DHEAS, 30 minutes at 37°; depending on the enzyme concentration used
# Experimental: Steroid Sulfatase Inhibition in Cell Extracts
# Human keratinocytes (HaCaT) or human skin-derived fibroblasts (1BR3GN) are grown to confluency using standard cell culture techniques. Cells are harvested by trypsinization, washed once with phosphate-buffered saline (PBS) and suspended in 20 mM Tris-HCl, pH 8.0. The suspension is sonicated and then centrifuged at 12000 g for 30 minutes. The supernatant is subjected to ultracentrifugation at 100000 g for 60 minutes. The resulting microsomal pellet is resuspended in buffer containing 0.1% Triton X-100 v/v and left standing for 30 minutes. After additional centrifugation at 100000 g for 30 minutes the supernatant which contains the solubilized enzyme is removed and stored at 4°.
# For assay of the enzymatic activity 10 μl of enzyme solution are added to 100 μl of 50 μM dehydroepiandrosterone sulfate (DHEAS) containing approximately 60000 dpm [^3H]-DHEAS (21 Ci/mmol) in 0.1 M Tris-HCl, pH 7.5; 0.1% v/v Triton X-100. Test compound is included at various concentrations added from stock solutions in DMSO. After incubation for 30 minutes at 37°, 250 μl of 1N NaOH are added. The mixture is extracted with 1 ml of toluene. 800 μl of the organic layer are subjected to liquid scintillation counting to determine the fraction of substrate that has been cleaved to dehydroepiandrosterone (DHEA).
melting point [°C],SMILES,IC50 (steroid sulfatase [1]) [nM],IC50 [2] [nM],IC50 (steroid sulfatase [3]) [nM]
,C[C@]12CC[C@@H]3c4ccc(OS(N)(=O)=O)cc4CC[C@H]3[C@@H]1CCC2=O [Estrone-3-O-sulfamate],~60,~0.1,1 to 5
83 to 85,"CN(C)S(=O)(=O)Oc1ccc2oc(C(C)(C)C)cc(=O)c2c1 [Example 9, N,N-Dimethylsulfamic acid 2-t-butyl-4H-chromen-4-on-6-yl ester]",,,
